Experiments:
[1] = slurry inter-conversion in isopropanol and tetrahydrofuran
From the text: Form A is made according to the methods in Table 15. Form B is made from Form A, in accordance with the procedures of Table 16.

[2] = Moisture sorption / hygroscopicity of treprostinil diethanolamine polymorphs; type: physicochemical; conditions: for weight gain in humidity chamber: 23 days
Experimental: The initial material synthesized (termed Form A) was characterized using X-ray powder diffraction (XRPD), differential scanning calorimetry (DSC), thermogravimetry (TG), hot stage microscopy, infrared (IR) and Raman spectroscopy, and moisture sorption. The IR and Raman spectra for Form A are shown in FIGS. 16 and 17, respectively. […] The moisture sorption data are shown graphically in FIG. 19. […] In addition, hygroscopicity of treprostinil diethanolamine was evaluated in humidity chambers at approximately 52% RH and 68% RH. […] Upon desorption from 95% down to 5% RH, the sample loses approximately 47%.

[3] = Treprostinil plasma concentrations in rats after a single oral dose of prodrugs (Example 2); type: in vivo, male Sprague-Dawley rats; conditions: rat; for Treprostinil AUC compared with dosing the active compound: oral; for adverse reactions following oral administration: single oral dose
Experimental: In this Example, Treprostinil concentrations were determined in male Sprague-Dawley rats following a single oral dose of the following compounds:
A solution of treprostinil methyl ester was prepared by dissolving 2.21 mg of treprostinil methyl ester with 0.85 mL of dimethylacetamide (DMA). […] The final concentration of the dosing vehicle was 0.26 mg/mL of treprostinil methyl ester equivalent to 0.25 mg/mL of Treprostinil.
A solution of treprostinil benzyl ester was prepared by dissolving 2.58 mg of treprostinil benzyl ester with 0.84 mL of dimethylacetamide (DMA). […] The final concentration of the dosing vehicle was 0.268 mg/mL of treprostinil benzyl ester equivalent to 0.25 mg/mL of Treprostinil.
A solution of treprostinil diglycine was prepared by dissolving 1.86 mg of compound with 0.58 mL of dimethylacetamide (DMA). […] The final concentration of the dosing vehicle was 0.323 mg/mL of treprostinil diglycine equivalent to 0.25 mg/mL of Treprostinil.
Groups I-III were dosed on the same day.
Animals were dosed via oral gavage.
Plasma samples were analyzed as described in Example 1. In brief, Treprostinil was extracted from the plasma via liquid-liquid extraction then analyzed by LC/MS/MS. The analytical validation results were reported previously in Example 1. […] Samples were not assayed for unchanged prodrug.

[4] = Clinical Study 01-101: escalating doses of UT-15C oral solution; conditions: for mean absolute bioavailability: based on historical intravenous treprostinil sodium data
Experimental: Prior to proceeding directly into clinical studies with a sustained release (SR) solid dosage form of UT-15C (treprostinil diethanolamine), a determination of the pharmacokinetics of an oral “immediate release” solution was performed.
A Safety, Tolerability, and Pharmacokinetic Study of Multiple Escalating Doses of UT-15C (Treprostinil Diethanolamine) Administered as an Oral Solution in Healthy Adult Volunteers (Including Study of Bioavailability).
Study endpoints included standard safety assessments (adverse events, vital signs, laboratory parameters, physical examinations, and electrocardiograms) as well as pharmacokinetic parameters.

[5] = Treprostinil plasma concentrations in rats after a single intraduodenal dose of prodrugs (Example 3); conditions: rat; for Tmax (of Treprostinil) / Maximum Treprostinil concentrations: intraduodenal; for Maximum Treprostinil concentrations: 5 minutes post-dosing; for adverse reactions following intraduodenal administration: single intraduodenal dose
From the text: This example illustrates a pharmacokinetic study of treprostinil following administration of a single duodenal dose of treprostinil and various prodrugs of the present invention.
In this study, the area under the curve of Treprostinil in male Sprague-Dawley rats following a single intraduodenal dose of treprostinil monophosphate (ring), treprostinil monovaline (ring), treprostinil monoalanine (ring) or treprostinil monoalanine (chain), prodrugs of treprostinil was compared. The compounds were as follows:
This solution was further diluted with 1.50 mL of PEG 400:Polysorbate 80:Water, 40:1:49.
A 50 mg/mL solution of treprostinil monovaline (ring) was prepared in dimethylacetamide (DMA). A 25 μL aliquot of the 50 mg/mL stock solution was then diluted with 175 μL of DMA and 1.8 mL of PEG 400:Polysorbate 80:Water, 40:1:49.
This solution was further diluted with 1.60 mL of PEG 400:polysorbate 80:Water, 40:1:49. The final concentration of the dosing vehicle was 0.590 mg/mL of treprostinil monoalanine (ring) equivalent to 0.5 mg/mL of Treprostinil.
A solution of treprostinil monoalanine (chain) was prepared by dissolving 0.83 mg of treprostinil monoalanine (chain) in 0.14 mL of dimethylacetamide (DMA) until dissolved. This solution was further diluted with 1.26 mL of PEG 400:Polysorbate 80:Water, 40:1:49.
The plasma concentrations of Treprostinil following […] of each prodrug were evaluated in male Sprague-Dawley rats. […] All groups were dosed on day 1 of the study.
Animals were dosed via an indwelling duodenal cannula.
The blood samples were withdrawn and placed into tubes containing 30 μL of a solution of 500 units per mL of heparin in saline, and centrifuged at 13,000 rpm for 10 minutes. Approximately 200 μL of plasma was then removed and dispensed into appropriately labeled polypropylene tubes containing 4 μL of acetic acid in order to stabilize any prodrug remaining in the samples. The plasma samples were frozen at −20° C. and were transported on ice to Absorption Systems Exton Facility. There they were stored in a −80° C. freezer pending analysis.
Plasma samples were analyzed using the methods described above. In brief, Treprostinil was extracted from the plasma via solid phase extraction then analyzed by LC/MS/MS. The lower limit of quantification (LLOQ) of the analytical method was 0.03 ng/mL.
Pharmacokinetic analysis was performed on the plasma concentration of Treprostinil for each individual rat at each time point and on the average plasma concentration for all three rats in the group for each time point.
The following formula was used to determine relative bioavailability (F): Relative F=(AUC(Prodrug Dose)/Dose)/(AUC(Treprostinil Dose)/Dose)*100

[6] = subcutaneous infusion; cited from earlier work

CCCCC[C@H](O)CC[C@@H]1[C@H]2Cc3cccc(OCC(=O)O)c3C[C@H]2C[C@H]1O.OCCNCCO [Form A]
thermodynamic stability of the crystal form [1]: metastable | hygroscopicity [2]: hygroscopic | weight gain during moisture sorption ([2]; beginning between 65 to 75% RH): > 33%

CCCCC[C@H](O)CC[C@@H]1[C@H]2Cc3cccc(OCC(=O)O)c3C[C@H]2C[C@H]1O.OCCNCCO [Form B]
weight loss in moisture sorption ([2]; 5% RH): minimal weight loss | water absorbed ([2]; 95% RH): approximately 49% | loss upon desorption ([2]; from 95% down to 5% RH): approximately 47%

CCCCC[C@@H](O)CC[C@@H]1C2Cc3cccc(OCC(=O)OCc4ccccc4)c3CC2C[C@H]1O (some centres unmarked) [Treprostinil benzyl ester, Benzyl Ester of Treprostinil]
Treprostinil AUC compared with dosing the active compound [3]: greater than that after dosing of the active compound | adverse reactions following oral administration [3]: No adverse reactions were observed

CCCCC[C@H](CC[C@@H]1C2Cc3cccc(OCC(=O)O)c3CC2C[C@H]1OC(=O)CN)OC(=O)CN (some centres unmarked) [Treprostinil diglycine, Bis-Glycyl Ester of Treprostinil]
Treprostinil AUC compared with dosing the active compound [3]: greater than that after dosing of the active compound | adverse reactions following oral administration [3]: No adverse reactions were observed

CCCCC[C@H](O)CC[C@@H]1[C@H]2Cc3cccc(OCC(=O)OC)c3C[C@H]2C[C@H]1O [Treprostinil methyl ester, Methyl Ester of Treprostinil]
Treprostinil AUC compared with dosing the active compound [3]: less than that after dosing the active compound | adverse reactions following oral administration [3]: No adverse reactions were observed

CCCCC[C@H](O)CC[C@@H]1[C@H]2Cc3cccc(OCC(=O)O)c3C[C@H]2C[C@H]1O.OCCNCCO [UT-15C, Treprostinil Diethanolamine]
Treprostinil plasma concentrations detectable [4]: detectable in all subjects | changes in hematology, clinical chemistry, urinalysis, vital signs, physical exams, and ECGs [4]: no clinically significant, treatment emergent changes | most frequently reported adverse events [4]: flushing, headache, and dizziness | mean absolute bioavailability ([4]; 0.2 mg total dose): 21% | mean absolute bioavailability ([4]; 0.5 mg total dose): 23% | mean absolute bioavailability ([4]; 1.0 mg total dose): 24% | mean absolute bioavailability ([4]; 2.0 mg total dose): 25% | highest (treprostinil plasma) concentration observed ([4]; after the third dose aliquot of the 2.0 mg total dose): 5.51 ng/mL | tolerability ([4]; all doses given): well tolerated by the majority of subjects | AUCinf and Cmax versus dose ([4]; each of the four dose aliquots): increased in a linear fashion with dose | weight gain in humidity chamber ([2]; ~52% RH): 4.9% | weight gain in humidity chamber ([2]; ~68% RH): 28%

CCCCC[C@@H](CC[C@@H]1[C@H]2Cc3cccc(OCC(=O)O)c3C[C@H]2C[C@H]1O)OC(=O)[C@H](C)N [treprostinil monoalanine (chain), 3′-L-Alanyl Ester of Treprostinil]
Tmax (of Treprostinil) [5]: 5 min | Maximum Treprostinil concentrations [5]: approximately 9 ng/mL | adverse reactions following intraduodenal administration [5]: No adverse reactions were observed

CCCCCC(O)CCC1C(OC(=O)C(C)N)CC2Cc3c(cccc3OCC(=O)O)CC21 [treprostinil monoalanine (ring), 2-L-Alanine Ester of Treprostinil]
Tmax (of Treprostinil) [5]: 60 min | adverse reactions following intraduodenal administration [5]: No adverse reactions were observed

CCCCCC(O)CCC1C(OP(=O)(O)O)CC2Cc3c(cccc3OCC(=O)O)CC21 (centres unmarked) [treprostinil monophosphate (ring), 2-Monophosphate Ester of Treprostinil]
Tmax (of Treprostinil) [5]: 5 min | Maximum Treprostinil concentrations [5]: approximately 9 ng/mL | adverse reactions following intraduodenal administration [5]: No adverse reactions were observed

CCCCCC(O)CCC1C(OC(=O)C(N)C(C)C)CC2Cc3c(cccc3OCC(=O)O)CC21 [treprostinil monovaline (ring), 2-L-Valine Ester of Treprostinil]
Tmax (of Treprostinil) [5]: 120 min | adverse reactions following intraduodenal administration [5]: No adverse reactions were observed

CCCCC[C@H](O)CC[C@@H]1[C@H]2Cc3cccc(OCC(=O)[O-])c3C[C@H]2C[C@H]1O.[Na+] [treprostinil sodium, (1R,2R,3aS,9aS)-[[2,3,3a,4,9,9a-Hexahydro-2-hydroxy-1-[(3S)-3-hydroxyoctyl]-1H-benz[f]inden-5-yl]oxy]acetic acid monosodium salt]
absolute bioavailability [6]: ~100%
